Assay results from ChEMBL document CHEMBL1201862, “PubChem BioAssay data set” (2004).
Activity calls are given as the source filed them.

Columns and labels:
Assay type in all cases: functional
[1] = biological target: T1, Protein RecA (Mycobacterium tuberculosis, UniProt P9WHJ3); assay: Fluorescence Cell-Free Homogeneous Dose Retest to Identify Inhibitors of RecA-Intein Splicing Activity. [Related pubchem assays (depositor defined):AID2097, AID2223, AID489010, AID492950]
T1 sequence (P9WHJ3 whole entry): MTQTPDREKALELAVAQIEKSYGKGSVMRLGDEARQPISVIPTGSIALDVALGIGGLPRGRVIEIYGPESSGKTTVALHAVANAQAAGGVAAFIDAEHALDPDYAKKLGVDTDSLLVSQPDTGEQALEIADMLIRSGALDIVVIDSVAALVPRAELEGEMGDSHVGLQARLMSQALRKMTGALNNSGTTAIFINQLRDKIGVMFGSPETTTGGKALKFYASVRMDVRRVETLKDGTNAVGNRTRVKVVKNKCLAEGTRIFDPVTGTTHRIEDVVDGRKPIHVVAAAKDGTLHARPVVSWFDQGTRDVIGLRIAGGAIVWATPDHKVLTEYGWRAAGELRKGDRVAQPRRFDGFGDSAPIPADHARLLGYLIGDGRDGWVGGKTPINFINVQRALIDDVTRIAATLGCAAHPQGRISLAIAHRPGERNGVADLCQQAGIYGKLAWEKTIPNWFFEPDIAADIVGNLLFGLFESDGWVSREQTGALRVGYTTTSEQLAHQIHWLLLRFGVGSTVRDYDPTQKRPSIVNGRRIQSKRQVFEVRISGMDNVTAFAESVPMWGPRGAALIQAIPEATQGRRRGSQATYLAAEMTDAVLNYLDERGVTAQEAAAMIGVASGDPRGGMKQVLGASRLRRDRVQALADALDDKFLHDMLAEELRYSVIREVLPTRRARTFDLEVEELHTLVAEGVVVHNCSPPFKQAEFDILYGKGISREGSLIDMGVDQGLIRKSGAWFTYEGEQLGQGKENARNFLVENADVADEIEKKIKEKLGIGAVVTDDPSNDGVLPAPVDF

[2] = biological target: T2, Replicative DNA helicase DnaB (Mycobacterium tuberculosis, UniProt P9WMR3); assay: DnaB intein splicing inhibitors, dose response, biochemical, cell-free fluorescence (AID 449749)
T2 sequence (P9WMR3 whole entry): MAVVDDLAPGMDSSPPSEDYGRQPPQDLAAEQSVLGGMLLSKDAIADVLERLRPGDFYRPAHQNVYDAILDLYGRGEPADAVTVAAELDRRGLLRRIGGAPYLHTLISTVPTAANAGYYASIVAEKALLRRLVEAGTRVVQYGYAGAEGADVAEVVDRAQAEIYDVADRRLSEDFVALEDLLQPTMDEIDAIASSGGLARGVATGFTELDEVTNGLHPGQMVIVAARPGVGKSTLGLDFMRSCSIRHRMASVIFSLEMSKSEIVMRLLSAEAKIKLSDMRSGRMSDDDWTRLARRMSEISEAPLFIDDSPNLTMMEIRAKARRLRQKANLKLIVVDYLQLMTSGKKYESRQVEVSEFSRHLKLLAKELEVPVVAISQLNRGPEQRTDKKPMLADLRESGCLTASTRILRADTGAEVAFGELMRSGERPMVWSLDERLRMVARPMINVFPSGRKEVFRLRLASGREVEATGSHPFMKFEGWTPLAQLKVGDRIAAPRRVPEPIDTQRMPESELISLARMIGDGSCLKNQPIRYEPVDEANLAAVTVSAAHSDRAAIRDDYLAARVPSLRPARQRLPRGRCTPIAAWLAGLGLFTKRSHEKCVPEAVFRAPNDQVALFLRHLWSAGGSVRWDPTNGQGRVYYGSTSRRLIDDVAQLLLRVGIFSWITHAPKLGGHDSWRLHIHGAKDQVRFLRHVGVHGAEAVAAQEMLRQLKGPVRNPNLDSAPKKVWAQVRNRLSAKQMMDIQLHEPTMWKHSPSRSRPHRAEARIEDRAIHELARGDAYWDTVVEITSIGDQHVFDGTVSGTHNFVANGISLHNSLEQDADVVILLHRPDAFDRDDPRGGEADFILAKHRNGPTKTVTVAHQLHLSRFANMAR

[3] = biological target: T3, Sentrin-specific protease 8 (Homo sapiens, UniProt Q96LD8);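 further: luminescence read-out of SENP8 inhibition, dose-response confirmation following an ultra-high-throughput screen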
T3 sequence (Q96LD8 whole entry): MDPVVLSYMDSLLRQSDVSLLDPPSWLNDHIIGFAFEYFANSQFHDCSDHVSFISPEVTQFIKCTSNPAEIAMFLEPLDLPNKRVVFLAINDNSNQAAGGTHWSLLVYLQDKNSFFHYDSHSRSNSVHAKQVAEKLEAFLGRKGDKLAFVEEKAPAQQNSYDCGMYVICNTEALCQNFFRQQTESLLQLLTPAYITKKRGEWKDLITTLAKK

[4] = biological target: T4, Sentrin-specific protease 6 (Homo sapiens, UniProt Q9GZR1);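 further: Luminescence-based dose-response confirmatory assay of SENP6 inhibition, following up an ultra-high-throughput screen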
T4 sequence (Q9GZR1 whole entry): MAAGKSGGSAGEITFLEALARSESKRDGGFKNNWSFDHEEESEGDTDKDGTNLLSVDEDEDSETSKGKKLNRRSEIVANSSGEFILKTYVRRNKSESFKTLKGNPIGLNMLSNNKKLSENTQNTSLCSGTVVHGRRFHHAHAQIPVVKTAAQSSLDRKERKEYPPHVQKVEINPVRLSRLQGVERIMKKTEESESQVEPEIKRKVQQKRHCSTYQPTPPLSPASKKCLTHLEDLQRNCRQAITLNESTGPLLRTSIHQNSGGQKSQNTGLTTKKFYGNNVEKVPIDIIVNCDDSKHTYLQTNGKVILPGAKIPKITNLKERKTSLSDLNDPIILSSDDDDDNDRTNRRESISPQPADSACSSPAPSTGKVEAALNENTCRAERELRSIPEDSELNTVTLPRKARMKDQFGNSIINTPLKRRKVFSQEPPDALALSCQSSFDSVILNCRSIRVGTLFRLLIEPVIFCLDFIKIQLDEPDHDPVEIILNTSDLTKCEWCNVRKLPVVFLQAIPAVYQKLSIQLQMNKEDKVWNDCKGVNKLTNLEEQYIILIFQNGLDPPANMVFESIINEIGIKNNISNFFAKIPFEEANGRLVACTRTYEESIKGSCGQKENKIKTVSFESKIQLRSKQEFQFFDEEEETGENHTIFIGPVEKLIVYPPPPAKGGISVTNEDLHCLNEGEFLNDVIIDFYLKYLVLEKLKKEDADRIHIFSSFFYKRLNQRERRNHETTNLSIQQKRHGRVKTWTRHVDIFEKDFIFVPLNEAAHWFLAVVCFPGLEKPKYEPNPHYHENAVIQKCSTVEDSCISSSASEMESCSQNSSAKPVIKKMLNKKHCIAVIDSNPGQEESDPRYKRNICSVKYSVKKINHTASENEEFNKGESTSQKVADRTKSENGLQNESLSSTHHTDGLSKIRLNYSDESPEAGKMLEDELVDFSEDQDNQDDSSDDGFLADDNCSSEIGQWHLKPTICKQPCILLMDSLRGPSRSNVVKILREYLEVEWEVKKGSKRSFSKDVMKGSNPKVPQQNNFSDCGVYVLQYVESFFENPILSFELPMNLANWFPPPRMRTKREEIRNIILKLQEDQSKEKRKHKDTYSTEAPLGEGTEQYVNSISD

For `Cc1cccc(C)c1-n1cccc1/C=C1\SC(=S)N(c2cccc(C(=O)O)c2)C1=O`, the EC50 [1] was 9.09 µM (active) and the AC50 [2] was 3.26 µM (active).
For `Oc1ccc(/C=N/Nc2cc(N3CCCC3)nc(N3CCCC3)n2)cc1`, the IC50 [3] was 22.1 µM (active) and the IC50 [4] was 6.05 µM (active).
For `COc1ccc(S(=O)(=O)/N=C2\C=C(Nc3ccc(O)cc3)C(=O)c3ccccc32)cc1`, the EC50 [1] was 0.141 µM (active) and the AC50 [2] was > 380 µM (inconclusive).
In the case of `COc1ccc(/C=N/Nc2cc(N3CCCC3)nc(N3CCCC3)n2)cc1`, the IC50 [3] is reported as 7.52 µM (active) and the IC50 [4] is reported as 2.71 µM (active).
